Data taken from patent publication US6534041B1, “Acid-labile and enzymatically divisible dye compounds for diagnosis with near infrared light and for therapy” (Institute for Diagnostic Research GmbH of the Free …, priority 1997, dated 2003).

Legend:
VIS/NIR absorption = format: physicochemical; conditions: H2O
[1] = in DMSO; according to Benson and Kues 1977; cited from earlier work

Row | SMILES | Absorption λmax (VIS/NIR absorption) [nm] | Absorption coefficient ξ at λmax (VIS/NIR absorption; 748 nm) | Fluorescence quantum yield Q (standard) [1] [%]
1 | CC(=O)c1ccc2c(c1)C(C)(C)C(C=CC=CC=CC=C1N(CCCCS(=O)(=O)[O-])c3ccccc3C1(C)C)=[N+]2CCCCS(=O)(=O)[O-].[Na+] [compound 1, 5-(1-oxoethyl)-1,1′-(4-sulfobutyl)-indotricarbocyanine-sodium salt] | 748 | 14,800 1 mol^−1 cm^−1 | –
2 | CC1(C)C(/C=C/C=C/C=C/C=C2\N(CCCCS(=O)(=O)O)c3ccc4ccccc4c3C2(C)C)=[N+](CCCCS(=O)(=O)[O-])c2ccc3ccccc3c21 [indocyanine green] | – | – | 13
